Source: PubChem BioAssay (NCI)
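96-well plates; 48 h exposure; 5 concentrations. Endpoints by linear interpolation between flanking doses. Not reached: highest tested concentration assigned. TGI is the concentration that stops growth completely.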

Key:
Test in all cases: inhibition of tumour cell growth, NCI panel, 48 h
[1] = tested on: NCI-H226 lung
[2] = tested on: UO-31 renal
[3] = tested on: KM20L2 colon
[4] = tested on: U251 CNS
[5] = tested on: SK-OV-3 ovarian
[6] = tested on: DMS 114 small cell lung
[7] = tested on: HOP-18 NSCLC
[8] = tested on: HT29 colon
[9] = tested on: HOP-62 NSCLC
[10] = tested on: ACHN renal
[11] = tested on: SN12C renal
[12] = tested on: RXF 393 renal
[13] = tested on: NCI-H522 lung
[14] = tested on: SF-295 CNS
[15] = tested on: DMS 273 small cell lung
[16] = tested on: HCT-116 colon
[17] = tested on: M19-MEL melanoma
[18] = tested on: SNB-19 CNS
[19] = tested on: HCT-15 colon
[20] = tested on: COLO 205 colon
[21] = tested on: SR leukemia
[22] = tested on: NCI-H460 lung
[23] = tested on: TK-10 renal
[24] = tested on: EKVX NSCLC
[25] = tested on: SNB-75 CNS
[26] = tested on: UACC-62 melanoma
[27] = tested on: LXFL 529 NSCLC
[28] = tested on: SK-MEL-28 melanoma
[29] = tested on: OVCAR-4 ovarian
[30] = tested on: RPMI-8226 leukemia
[31] = tested on: M14 melanoma
[32] = tested on: A549 NSCLC
[33] = tested on: CCRF-CEM leukemia
[34] = tested on: K-562 leukemia
[35] = tested on: SK-MEL-5 melanoma
[36] = tested on: UACC-257 melanoma
[37] = tested on: SNB-78 CNS
[38] = tested on: SK-MEL-2 melanoma
[39] = tested on: 786-0 renal
[40] = tested on: XF 498 CNS
[41] = tested on: MALME-3M melanoma
[42] = tested on: MOLT-4 leukemia
[43] = tested on: SF-268 CNS
[44] = tested on: OVCAR-8 ovarian
[45] = tested on: HL-60(TB) leukemia
[46] = tested on: NCI-H23 lung
[47] = tested on: KM12 colon
[48] = tested on: SW-620 colon
[49] = tested on: LOX IMVI melanoma
[50] = tested on: DLD-1 colon
[51] = tested on: A498 renal
[52] = tested on: OVCAR-5 ovarian
[53] = tested on: SF-539 CNS
[54] = tested on: RXF-631 renal
[55] = tested on: IGROV1 ovarian
[56] = tested on: HCC-2998 colon
[57] = tested on: OVCAR-3 ovarian
[58] = tested on: HOP-92 NSCLC
[59] = tested on: MDA-MB-231 breast
[60] = tested on: PC-3 prostate
[61] = tested on: CAKI-1 renal
[62] = tested on: MCF7 breast
[63] = tested on: HS 578T breast
[64] = tested on: DU-145 prostate
[65] = tested on: MDA-N
[66] = tested on: BT-549 breast
[67] = tested on: MDA-MB-435
[68] = tested on: T-47D breast
[69] = tested on: NCI/ADR-RES ovarian

Measured: TGI

CC(=O)O[C@]12CCCC1C1(O)C(O)CCCC12 (stereo partly specified)
not listed: [50] | [51] | [52] | [53] | [54] | [55] | [56] | [57] | [58] | [59] | [60] | [61] | [62] | [63] | [64] | [65] | [66] | [67] | [68] | [69]
> 100 µM: all other assays above

O=C1NC2(CCCCC2)C2CCCCCC12 (stereo unspecified)
not listed: [7] | [13] | [15] | [17] | [20] | [30] | [33] | [35] | [38] | [39] | [44] | [58] | [59] | [60] | [61] | [62] | [63] | [64] | [65] | [66] | [67] | [68] | [69]
> 100 µM: all other assays above

CCCCOC(=O)NC(=O)c1cn(CCSCCOC(=O)NCCCCCCNC(=O)OCCSCCn2cc(C(=O)NC(=O)OCCCC)c(=O)[nH]c2=O)c(=O)[nH]c1=O
64.7 µM: [51]
76.6 µM: [41]
74.1 µM: [4]
94.5 µM: [46]
71.8 µM: [58]
92.4 µM: [23]
not listed: [1] | [33] | [40] | [42] | [44] | [48] | [59] | [60] | [61] | [62] | [63] | [64] | [65] | [66] | [67] | [68] | [69]
> 100 µM: all other assays above

Cc1[nH]c2ccccc2c1C=Nc1ccc(N=Cc2c(C)[nH]c3ccccc23)cc1
70.2 µM: [48]
93.8 µM: [35]
41.9 µM: [13]
36.5 µM: [49]
51.7 µM: [67]
57.2 µM: [38]
47 µM: [34]
32.3 µM: [47]
45.3 µM: [30]
47.6 µM: [33]
30.1 µM: [62]
46.9 µM: [21]
27.3 µM: [20]
35.7 µM: [39]
41.8 µM: [45]
38.2 µM: [16]
43.1 µM: [42]
not listed: [3] | [6] | [7] | [15] | [17] | [27] | [37] | [40] | [50] | [54]
> 100 µM: all other assays above
